# Measurements: patent publication US11052092B2, “N-{[2-(piperidin-1-yl)phenyl](phenyl)methyl}-2-(3-oxo-3,4-dihydro-2H-1,4-benzoxazin-7-yl)acetamide derivatives and related compounds as ROR-gamma modulators for treating autoimmune diseases” (Genfit, priority 2017, dated 2021)
# Columns and labels:
# [1] = biological target: T1, human RORγt (Homo sapiens, UniProt P51449); test: RORE Luciferase/RORγt transactivation assay; type: cell-based; details: COS-7 cells transfected with human IL-17 promoter luciferase reporter and RORγt plasmid; 20 h with compound; read-out: IC50, RORγt activity inhibition
# T1 construct: the full-length cDNA of human RORγt; expressed in transfected cells; host or cells: COS-7 (monkey kidney)
# T1 sequence (P51449 1-497 isoform P51449-2): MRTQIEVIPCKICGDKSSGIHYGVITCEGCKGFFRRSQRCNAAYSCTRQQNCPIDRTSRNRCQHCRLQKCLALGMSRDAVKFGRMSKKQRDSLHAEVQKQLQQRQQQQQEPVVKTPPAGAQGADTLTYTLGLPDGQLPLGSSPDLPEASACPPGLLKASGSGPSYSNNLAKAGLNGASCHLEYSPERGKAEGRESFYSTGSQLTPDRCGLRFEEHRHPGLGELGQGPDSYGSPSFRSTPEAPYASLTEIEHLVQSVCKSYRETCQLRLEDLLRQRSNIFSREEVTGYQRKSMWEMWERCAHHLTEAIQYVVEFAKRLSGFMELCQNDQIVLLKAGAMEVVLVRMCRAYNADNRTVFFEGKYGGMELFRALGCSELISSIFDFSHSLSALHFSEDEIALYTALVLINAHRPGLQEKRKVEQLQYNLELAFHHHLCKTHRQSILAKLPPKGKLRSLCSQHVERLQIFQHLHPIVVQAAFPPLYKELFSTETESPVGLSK
# Method in brief: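 Transactivation read-out: luminescence (Steady-Glo, 30 min at room temperature) from COS-7 cells carrying a RORγt expression plasmid plus a 4.3 kb IL-17 promoter luciferase reporter. Compound exposure was in serum-free DMEM with 0.3% DMSO final. Reported values are IC50 (μM) and Emax (%).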
# [2] = tested on: Murine EL-4 lymphoma cell line overexpressing human RORγt; test: IL-17 secretion from EL4 murine lymphoma; type: cell-based; details: Mus musculus; human RORγt-transfected EL4 cells, PMA (10 ng/mL) and ionomycin (1 μM), 24 h; read-out: IC50, IL-17 secretion inhibition
# Method: Murine EL-4 lymphoma cell line overexpressing human RORγt was used in this functional assay to assess compound ability to inhibit IL-17 cytokine secretion.
# EL-4 cells are maintained in a standard culture medium RPMI supplemented with 10% fetal calf serum, 1% sodium pyruvate, 1% essential amino acids and 1% antibiotics at 37° C. in a humidified atmosphere of 5% CO02 and 95% air. Culture medium was changed every 2 days. EL4 cells were transfected with a plasmid encoding hRORγt (sequence identical to published sequence NM 001001523). […] Briefly, 1 μg of DNA/1 million cells was served to transfect EL-4 cells. Cell/DNA suspension was transferred into certified cuvette and the electroporation of RORγt plasmid was carried out using appropriate Nucleofector® program.
# Cells were seeded in 96 well plates at a density of 150000 cells/I well then treated with compounds of this invention at indicated concentrations and incubated for 24 hours at 37° C. in a humidified atmosphere of 5% C02 and 95% air. EL-4 cells were pretreated with test compounds (RORγ modulators) and stimulated with PMA (10 ng/mL) and ionomycin (1 μM final concentration) in the presence of test compound concentrations for additional 24 h at 37° C. in a humidified atmosphere of 5% C02 and 95% air. Subsequently, supernatants were collected (after centrifugation at 300 g for 10 minutes) to determine the concentrations of IL-17 by HTRF (CisBio, France) or ELISA (R&D Systems Europe) according to the manufacturer's protocols.
IC50 [1],IC50 [2],melting point,SMILES
10 to 100 nM,100 to 1000 nM,112 °C,"Cc1ccc(C(NC(=O)Cc2ccc3c(c2)C(C)(O)C(=O)N3)c2ccc(C)o2)c(N2CCCCC2)c1 (stereo not drawn) [Cpd. 47, 2-(3-hydroxy-3-methyl-2-oxo-2,3-dihydro-1H-indol-5-yl)-N-{[4-methyl-2-(piperidin-1-yl)phenyl](5-methylfuran-2-yl)methyl}acetamide]"
10 to 100 nM,100 to 1000 nM,–,"Cc1ccc(C(NC(=O)C2(c3ccc4c(c3)CS(=O)(=O)C4)CC2)c2ccc(Cl)o2)c(C)c1 (stereo not drawn) [Cpd. 72, N-[(5-chlorofuran-2-yl)(2,4-dimethylphenyl)methyl]-1-(2,2-dioxo-1,3-dihydro-2-benzothiophen-5-yl)cyclopropane-1-carboxamide]"
10 to 100 nM,< 100 nM,–,"Cc1ccc(C(NC(=O)C2(c3ccc4c(c3)CN(S(C)(=O)=O)C4)CC2)c2ccc(C)o2)c(N2CCCC2)c1 (stereo not drawn) [Cpd. 73, 1-(2-methanesulfonyl-2,3-dihydro-1H-isoindol-5-yl)-N-{[4-methyl-2-(pyrrolidin-1-yl)phenyl](5-methylfuran-2-yl)methyl}cyclopropane-1-carboxamide]"
10 to 100 nM,100 to 1000 nM,137 °C,"Cc1ccc(C(NC(=O)Cc2ccc3[nH]c(C)nc3c2)c2ccccc2)c(N2CCCCC2)c1 (stereo not drawn) [Cpd. 75, 2-(2-methyl-1H-1,3-benzodiazol-5-yl)-N-{[4-methyl-2-(piperidin-1-yl)phenyl](phenyl)methyl}acetamide]"
10 to 100 nM,100 to 1000 nM,–,"Cc1ccc(C(NC(=O)C2(c3ccc4c(c3)CN(S(C)(=O)=O)C4)CC2)c2ccc(C)o2)c(N(C)C)c1 (stereo not drawn) [Cpd. 76, N-{[2-(dimethylamino)-4-methylphenyl](5-methylfuran-2-yl)methyl}-1-(2-methanesulfonyl-2,3-dihydro-1H-isoindol-5-yl)cyclopropane-1-carboxamide]"
10 to 100 nM,100 to 1000 nM,–,"Cc1ccc(C(NC(=O)Cc2ccc3c(c2)CS(=O)(=O)C3)c2ccc(C)o2)c(N2CCCCC2)c1 (stereo not drawn) [Cpd. 78, 2-(2,2-dioxo-1,3-dihydro-2-benzothiophen-5-yl)-N-{[4-methyl-2-(piperidin-1-yl)phenyl](5-methylfuran-2-yl)methyl}acetamide]"
10 to 100 nM,100 to 1000 nM,–,"Cc1ccc(C(NC(=O)Cc2ccc3c(c2)CN(S(C)(=O)=O)C3)c2ccc(Cl)o2)c(N2CCCCC2)c1 (stereo not drawn) [Cpd. 79, N-[(5-chlorofuran-2-yl)[4-methyl-2-(piperidin-1-yl)phenyl]methyl]-2-(2-methanesulfonyl-2,3-dihydro-1H-isoindol-5-yl)acetamide]"
10 to 100 nM,100 to 1000 nM,–,"Cc1ccc(C(NC(=O)C2(c3ccc4c(c3)CN(S(C)(=O)=O)C4)CC2)c2ccc(Cl)o2)c(N2CCCC2)c1 (stereo not drawn) [Cpd. 80, N-[(5-chlorofuran-2-yl)[4-methyl-2-(pyrrolidin-1-yl)phenyl]methyl]-1-(2-methanesulfonyl-2,3-dihydro-1H-isoindol-5-yl)cyclopropane-1-carboxamide]"
10 to 100 nM,100 to 1000 nM,–,"Cc1ccc(C(NC(=O)Cc2ccc3c(c2)CC(=O)N3)c2ccc(Cl)o2)c(N2CCCCC2)c1 (stereo not drawn) [Cpd. 83, N-[(5-chlorofuran-2-yl)[4-methyl-2-(piperidin-1-yl)phenyl]methyl]-2-(2-oxo-2,3-dihydro-1H-indol-5-yl)acetamide]"
10 to 100 nM,< 100 nM,92 °C,"Cc1ccc(C(NC(=O)Cc2ccc3c(CO)c[nH]c3c2)c2ccc(C)o2)c(N2CCCCC2)c1 (stereo not drawn) [Cpd. 88, 2-[3-(hydroxymethyl)-1H-indol-6-yl]-N-{[4-methyl-2-(piperidin-1-yl)phenyl](5-methylfuran-2-yl)methyl}acetamide]"
< 10 nM,< 100 nM,112 °C,"Cc1ccc(C(NC(=O)C2(c3ccc4[nH]cc(CO)c4c3)CC2)c2ccc(C)o2)c(N2CCCCC2)c1 (stereo not drawn) [Cpd. 89, 1-[3-(hydroxymethyl)-1H-indol-5-yl]-N-{[4-methyl-2-(piperidin-1-yl)phenyl](5-methylfuran-2-yl)methyl}cyclopropane-1-carboxamide]"
10 to 100 nM,< 100 nM,–,"Cc1ccc(C(NC(=O)Cc2ccc3[nH]c(N4CCOCC4)nc3c2)c2ccc(C)o2)c(N2CCCCC2)c1 (stereo not drawn) [Cpd. 93, N-{[4-methyl-2-(piperidin-1-yl)phenyl](5-methylfuran-2-yl)methyl}-2-[2-(morpholin-4-yl)-1H-1,3-benzodiazol-5-yl]acetamide]"
10 to 100 nM,< 100 nM,–,"Cc1ccc(C(NC(=O)Cc2ccc3[nH]cc(C(=O)CS(C)(=O)=O)c3c2)c2ccc(C)o2)c(N2CCCCC2)c1 (stereo not drawn) [Cpd. 103, 2-[3-(2-methanesulfonylacetyl)-1H-indol-5-yl]-N-{[4-methyl-2-(piperidin-1-yl)phenyl](5-methylfuran-2-yl)methyl}acetamide]"
100 to 1000 nM,1000 to 10000 nM,–,"Cc1ccc(C(NC(=O)Cc2ccc3[nH]cc(C(=O)CS(C)(=O)=O)c3c2)c2ccc(C)o2)c(Br)c1 (stereo not drawn) [Cpd. 104, N-[(2-bromo-4-methylphenyl)(5-methylfuran-2-yl)methyl]-2-[3-(2-methanesulfonylacetyl)-1H-indol-5-yl]acetamide]"
10 to 100 nM,100 to 1000 nM,–,"Cc1ccc(C(NC(=O)Cc2ccc3c(ccn3S(C)(=O)=O)c2)c2ccc(C)o2)c(N2CCCCC2)c1 (stereo not drawn) [Cpd. 106, 2-(1-methanesulfonyl-1H-indol-5-yl)-N-{[4-methyl-2-(piperidin-1-yl)phenyl](5-methylfuran-2-yl)methyl}acetamide]"
100 to 1000 nM,1000 to 10000 nM,–,"Cc1ccc(C(NC(=O)Cc2ccc3[nH]cc(C(=O)CS(C)(=O)=O)c3c2)c2ccc(C)o2)c(C)c1 (stereo not drawn) [Cpd. 107, N-[(2,4-dimethylphenyl)(5-methylfuran-2-yl)methyl]-2-[3-(2-methanesulfonylacetyl)-1H-indol-5-yl]acetamide]"
10 to 100 nM,< 100 nM,–,"Cc1ccc(C(NC(=O)C2(c3ccc4[nH]ccc4c3)CC2)c2ccc(C)o2)c(C)c1 (stereo not drawn) [Cpd. 108, N-[(2,4-dimethylphenyl)(5-methylfuran-2-yl)methyl]-1-(1H-indol-5-yl)cyclopropane-1-carboxamide]"
10 to 100 nM,100 to 1000 nM,–,"Cc1ccc(C(NC(=O)Cc2ccc3[nH]cc(CCS(C)(=O)=O)c3c2)c2ccc(Cl)o2)c(N2CCCC2)c1 (stereo not drawn) [Cpd. 112, N-[(5-chlorofuran-2-yl)[4-methyl-2-(pyrrolidin-1-yl)phenyl]methyl]-2-[3-(2-methanesulfonylethyl)-1H-indol-5-yl]acetamide]"
10 to 100 nM,100 to 1000 nM,–,"Cc1ccc(C(NC(=O)Cc2ccc3ccn(C(=O)N4CCOCC4)c3c2)c2ccc(C)o2)c(N2CCCCC2)c1 (stereo not drawn) [Cpd. 114, N-{[4-methyl-2-(piperidin-1-yl)phenyl](5-methylfuran-2-yl)methyl}-2-[1-(morpholine-4-carbonyl)-1H-indol-6-yl]acetamide]"
10 to 100 nM,100 to 1000 nM,–,"CNS(=O)(=O)c1c[nH]c2ccc(CC(=O)NC(c3ccc(C)o3)c3ccc(C)cc3N3CCCCC3)cc12 (stereo not drawn) [Cpd. 115, N-{[4-methyl-2-(piperidin-1-yl)phenyl](5-methylfuran-2-yl)methyl}-2-[3-(methylsulfamoyl)-1H-indol-5-yl]acetamide]"
10 to 100 nM,< 100 nM,–,"Cc1ccc(C(NC(=O)Cc2ccc3[nH]cc(C(=O)N4CCOCC4)c3c2)c2ccc(C)o2)c(N2CCCCC2)c1 (stereo not drawn) [Cpd. 120, N-{[4-methyl-2-(piperidin-1-yl)phenyl](5-methylfuran-2-yl)methyl}-2-[3-(morpholine-4-carbonyl)-1H-indol-5-yl]acetamide]"
10 to 100 nM,100 to 1000 nM,–,"CC(=O)N1CCc2cc(C3(C(=O)NC(c4ccc(C)o4)c4ccc(C)cc4C)CC3)ccc21 (stereo not drawn) [Cpd. 126, 1-(1-acetyl-2,3-dihydro-1H-indol-5-yl)-N-[(2,4-dimethylphenyl)(5-methylfuran-2-yl)methyl]cyclopropane-1-carboxamide]"
